Patent US20130296228A1, “EFFLUX PUMP INHIBITORS” (priority 2010, published 2013)
Read-outs that look alike come from different tables or passages of the source.

How the values were obtained:
P. aeruginosa 2301 [1] = experiment: Survival of high density inoculation in MHA medium; format: cell-based; details: high density inoculation 2-5 × 10^9 CFU/ml; 20 mcg/ml in MHA medium
Excerpt: In a most surprising manner, the combination of ceftazidime and azithromycin and tigecycline respectively brought about more than 7 log reduction in the bacterial count as compared to individual effects in highly resistant Pseudomonas strain. Moreover in a very unusual and surprising manner this tremendous bactericidal effect is taking place at concentrations much below than their individual inhibitory concentrations. […] It is also likely that ceftazidime interacts with outer membrane porins and acts as a porin modulator. Bacalum et al. have shown that ceftazidime binds to outer membrane porins with high affinity (Bacalum et al. Romanian. J. Biophys., 19, 105-116, 2009).

[2] = system: MDR clinical isolate of P. aeruginosa 2301; experiment: Systemic infection in mice, % survival; format: in vivo; details: for % survival: mice; for protection of infected animals, agent individually: quinolone arginine salt 50 mg/kg, ceftazidime 300 mg/kg
outer membrane porins = details: Bacalum et al. 2009; cited from earlier work
P. aeruginosa 23587 [3] = experiment: Diameter of zone of inhibition of antimicrobial agents with or without efflux pump inhibitor; format: cell-based
Excerpt: Since RND efflux pumps operate by utilizing energy in […], metabolic inhibitor, sodium azide brings about MDR RND pump inhibition by causing energy deprivation.

[4] = system: highly resistant P. aeruginosa strains; experiment: MIC; format: cell-based; details: highly resistant P. aeruginosa strains used for infecting animals
MDR P. aeruginosa = experiment: Enhanced killing: viable count over time; format: cell-based; details: for killing effect of the agent individually: quinolone arginine salt 8 μg/ml, ceftazidime 8 and 16 μg/ml
Protocol: Table 4 results of efflux pump inhibition based cidal synergy between S-(−)-9-Fluoro-8-(4-hydroxy-piperidin-1-yl)-5-methyl-6,7-dihydro-1-oxo-1H,5H-benzo[i,j]quinolizine-2-carboxylic acid L-arginine salt tetrahydrate nd ceftazidime. Potent cidal synergy is observed between S-(−)-9-Fluoro-8-(4-hydroxy-piperidin-1-yl)-5-methyl-6,7-dihydro-1-oxo-1H,5H-benzo[i,j]quinolizine-2-carboxylic acid L-arginine salt tetrahydrate (concentration, 8 μg/ml) and ceftazidime (concentration, 8 and 16 μg/ml). These concentrations are at least 4 times lower than their MIC. […] Thus the efflux pump inhibition based synergy is not just growth inhibitory but also, most importantly, imparts extensive killing of the pathogen.

P. aeruginosa 23587 [5] = experiment: Survival of high density inoculation in MHA medium; format: cell-based; details: high density inoculation 2-5 × 10^9 CFU/ml
P. aeruginosa 2301 [6] = experiment: Diameter of zone of inhibition of antimicrobial agents with or without efflux pump inhibitor; format: cell-based; details: for Diameter of zone of inhibition: P. aeruginosa 2301

CC(C)(O/N=C(\C(=O)N[C@@H]1C(=O)N2C(C(=O)[O-])=C(C[n+]3ccccc3)CS[C@H]12)c1csc(N)n1)C(=O)O [Ceftazidime, ceftazidime]
CFU/ml at 48 h (P. aeruginosa 2301 [1]): >5 × 10^9 CFU/ml | % survival ([2]; Table 5, 300 mg/kg BID × 1 day, Subcutaneous): 16.6% | % survival ([2]; Table 7, 100 mg/kg BID × 1 day, Oral): 16.6% | % survival ([2]; Table 7, 200 mg/kg BID × 1 day, Oral): 16.6% | protection of infected animals, agent individually [2]: could not protect | binding to outer membrane porins (outer membrane porins): high affinity | inhibition of MDR RND efflux pumps, concluded from potentiation (P. aeruginosa 23587 [3]; clinical isolates of P. aeruginosa): inhibit RND pumps | MIC ([4]; Pseudomonas aeruginosa, read-out: MIC): > 32 µg/mL | viable count (MDR P. aeruginosa; 8 μg/ml, 0 h): 6.11 Log CFU/ ml | viable count (MDR P. aeruginosa; 8 μg/ml, 24 h): 8.64 Log CFU/ ml | viable count (MDR P. aeruginosa; 8 μg/ml, 48 h): 9.3 Log CFU/ ml | viable count (MDR P. aeruginosa; 16 μg/ml, 0 h): 6.11 Log CFU/ ml | viable count (MDR P. aeruginosa; 16 μg/ml, 24 h): 5.30 Log CFU/ ml | viable count (MDR P. aeruginosa; 16 μg/ml, 48 h): 9.2 Log CFU/ ml | killing effect of the agent individually (MDR P. aeruginosa): ineffective | CFU/ml at 48 h (P. aeruginosa 23587 [5]; 64 mcg/ml in MHA medium): >5 × 10^9 CFU/ml

C[C@H]1CCc2c(N3CCC(O)CC3)c(F)cc3c(=O)c(C(=O)O)cn1c23.N=C(N)NCCC[C@H](N)C(=O)O.O.O.O.O [S-(−)-9-Fluoro-8-(4-hydroxy-piperidin-1-yl)-5-methyl-6,7-dihydro-1-oxo-1H,5H-benzo[i,j]quinolizine-2-carboxylic acid L-arginine salt tetrahydrate]
% survival ([2]; Table 5, 50 mg/kg BID × 1 day, Subcutaneous): 0% | % survival ([2]; Table 5, 75 mg/kg BID × 1 day, Subcutaneous): 33.3% | % survival ([2]; Table 5, 100 mg/kg BID × 1 day, Subcutaneous): 100% | protection of infected animals, agent individually [2]: could not protect | change of activity on addition of sodium azide (P. aeruginosa 23587 [3]): potentiated | change of activity in the presence of cefepime and ceftazidime (P. aeruginosa 23587 [3]; Example 3): significant potentiation | Diameter of zone of inhibition (P. aeruginosa 23587 [3]; Table 1, P. aeruginosa 23587, +PAN (20 μg/ml), 4 μg/well): 30 m.m. | Diameter of zone of inhibition (P. aeruginosa 23587 [3]; Table 1, P. aeruginosa 23587, +PAN (20 μg/ml), 8 μg/well): 34 m.m. | Diameter of zone of inhibition (P. aeruginosa 23587 [3]; Table 1, P. aeruginosa 23587, +PAN (20 μg/ml), 16 μg/well): 35 m.m. | Diameter of zone of inhibition (P. aeruginosa 23587 [3]; Table 1, P. aeruginosa 23587, Control, 4 μg/well): Nil | Diameter of zone of inhibition (P. aeruginosa 23587 [3]; Table 1, P. aeruginosa 23587, Control, 8 μg/well): 12 m.m. | Diameter of zone of inhibition (P. aeruginosa 23587 [3]; Table 1, P. aeruginosa 23587, Control, 16 μg/well): 15 m.m. | Diameter of zone of inhibition (P. aeruginosa 23587 [3]; Table 2, P. aeruginosa (23587), +Reserpine (25 μg/ml), 8 μg/well): Nil | Diameter of zone of inhibition (P. aeruginosa 23587 [3]; Table 2, P. aeruginosa (23587), +Reserpine (25 μg/ml), 16 μg/well): 11 m.m. | Diameter of zone of inhibition (P. aeruginosa 23587 [3]; Table 2, P. aeruginosa (23587), +Reserpine (25 μg/ml), 32 μg/well): 15 m.m. | Diameter of zone of inhibition (P. aeruginosa 23587 [3]; Table 2, P. aeruginosa (23587), +sodium azide (10 μg/ml), 8 μg/well): 12 m.m. | Diameter of zone of inhibition (P. aeruginosa 23587 [3]; Table 2, P. aeruginosa (23587), +sodium azide (10 μg/ml), 16 μg/well): 15 m.m. | Diameter of zone of inhibition (P. aeruginosa 23587 [3]; Table 2, P. aeruginosa (23587), +sodium azide (10 μg/ml), 32 μg/well): 20 m.m. | Diameter of zone of inhibition (P. aeruginosa 23587 [3]; Table 2, P. aeruginosa (23587), Control, 8 μg/well): Nil | Diameter of zone of inhibition (P. aeruginosa 23587 [3]; Table 2, P. aeruginosa (23587), Control, 16 μg/well): 11 m.m. | Diameter of zone of inhibition (P. aeruginosa 23587 [3]; Table 2, P. aeruginosa (23587), Control, 32 μg/well): 15 m.m. | Diameter of zone of inhibition (P. aeruginosa 23587 [3]; Table 3, P. aeruginosa 23587, +Cefepime (1 μg/ml), 8 μg/Well): 12 m.m. | Diameter of zone of inhibition (P. aeruginosa 23587 [3]; Table 3, P. aeruginosa 23587, +Cefepime (1 μg/ml), 16 μg/Well): 18 m.m. | Diameter of zone of inhibition (P. aeruginosa 23587 [3]; Table 3, P. aeruginosa 23587, +Cefepime (1 μg/ml), 32 μg/Well): 24 m.m. | Diameter of zone of inhibition (P. aeruginosa 23587 [3]; Table 3, P. aeruginosa 23587, +Ceftazidime (1 μg/ml), 8 μg/Well): 20 m.m. | Diameter of zone of inhibition (P. aeruginosa 23587 [3]; Table 3, P. aeruginosa 23587, +Ceftazidime (1 μg/ml), 16 μg/Well): 25 m.m. | Diameter of zone of inhibition (P. aeruginosa 23587 [3]; Table 3, P. aeruginosa 23587, +Ceftazidime (1 μg/ml), 32 μg/Well): 33 m.m. | Diameter of zone of inhibition (P. aeruginosa 23587 [3]; Table 3, P. aeruginosa 23587, Control, 8 μg/Well): 9 m.m. | Diameter of zone of inhibition (P. aeruginosa 23587 [3]; Table 3, P. aeruginosa 23587, Control, 16 μg/Well): 14.5 m.m. | Diameter of zone of inhibition (P. aeruginosa 23587 [3]; Table 3, P. aeruginosa 23587, Control, 32 μg/Well): 19.5 m.m. | change of activity in the presence of PAN (P. aeruginosa 23587 [3]; clinical isolates P. aeruginosa 23587 and P. aeruginosa 2301): Synergistic enhancement | MIC [4]: 16 µg/mL | change of activity in the presence of cefepime and ceftazidime (P. aeruginosa 2301 [6]; Example 6): significant potentiation | Diameter of zone of inhibition (P. aeruginosa 2301 [6]; Table 1, +PAN (20 μg/ml), 4 μg/well): 25 m.m. | Diameter of zone of inhibition (P. aeruginosa 2301 [6]; Table 1, +PAN (20 μg/ml), 8 μg/well): 32 m.m. | Diameter of zone of inhibition (P. aeruginosa 2301 [6]; Table 1, +PAN (20 μg/ml), 16 μg/well): 38 m.m. | Diameter of zone of inhibition (P. aeruginosa 2301 [6]; Table 1, Control, 4 μg/well): 15.5 m.m. | Diameter of zone of inhibition (P. aeruginosa 2301 [6]; Table 1, Control, 8 μg/well): 20 m.m. | Diameter of zone of inhibition (P. aeruginosa 2301 [6]; Table 1, Control, 16 μg/well): 23.5 m.m. | Diameter of zone of inhibition (P. aeruginosa 2301 [6]; Table 6, +Cefepime (2 μg/ml), 8 μg/Well): 12 m.m. | Diameter of zone of inhibition (P. aeruginosa 2301 [6]; Table 6, +Cefepime (2 μg/ml), 16 μg/Well): 18 m.m. | Diameter of zone of inhibition (P. aeruginosa 2301 [6]; Table 6, +Cefepime (2 μg/ml), 32 μg/Well): 24 m.m. | Diameter of zone of inhibition (P. aeruginosa 2301 [6]; Table 6, +Ceftazidime (0.5 μg/ml), 8 μg/Well): 20 m.m. | Diameter of zone of inhibition (P. aeruginosa 2301 [6]; Table 6, +Ceftazidime (0.5 μg/ml), 16 μg/Well): 25 m.m. | Diameter of zone of inhibition (P. aeruginosa 2301 [6]; Table 6, +Ceftazidime (0.5 μg/ml), 32 μg/Well): 33 m.m. | Diameter of zone of inhibition (P. aeruginosa 2301 [6]; Table 6, Control, 8 μg/Well): 9 m.m. | Diameter of zone of inhibition (P. aeruginosa 2301 [6]; Table 6, Control, 16 μg/Well): 14.5 m.m. | Diameter of zone of inhibition (P. aeruginosa 2301 [6]; Table 6, Control, 32 μg/Well): 19.5 m.m. | viable count (MDR P. aeruginosa; 8 μg/ml, 0 h): 6.11 Log CFU/ ml | viable count (MDR P. aeruginosa; 8 μg/ml, 24 h): 8.64 Log CFU/ ml | viable count (MDR P. aeruginosa; 8 μg/ml, 48 h): 9.4 Log CFU/ ml | viable count (MDR P. aeruginosa; 16 μg/ml, 0 h): 6.11 Log CFU/ ml | viable count (MDR P. aeruginosa; 16 μg/ml, 24 h): 4.30 Log CFU/ ml | viable count (MDR P. aeruginosa; 16 μg/ml, 48 h): <3.0 Log CFU/ ml | killing effect of the agent individually (MDR P. aeruginosa): ineffective | CFU/ml at 48 h (P. aeruginosa 23587 [5]; 32 mcg/ml in MHA medium): >5 × 10^9 CFU/ml
